Data reported in patent US20260294915A1, “COMBINATION THERAPY COMPRISING A MAT2A INHIBITOR AND A TOPOISOMERASE INHIBITOR, A SPLICING INHIBITOR SULFONAMIDE, OR A KIF18 INHIBITOR” (IDEAYA BIOSCIENCES, INC., priority 2023, published 2026).
pIC50: −log10 of the molar value. Where two headings read alike, the source gives them in different places.

Experiments:
Assay in all cases: 10-day proliferation (CTG), equimolar Compound A + SPLAM (Example 4)
Format in all cases: cell-based
SW900 = conditions: single agent or 1:1 combo; for pIC50: Homo sapiens, read-out: gIC50
Procedure: (§1) A 10-day proliferation assay was performed in a panel of 5 MTAP-deficient and 2 wild type non-small cell lung and bladder cancer cell lines. Optimal cell seeding for all cell lines was determined by assessing the growth over a range of seeding densities in a 384-well format to identify conditions that permitted proliferation for 10 days. Cells were then plated at the optimal seeding density and treated with 20-point, two-fold dilution series of Compound A, the splicing inhibitor sulfonamide (SPLAM), or an equimolar combination of Compound A and the SPLAM. Combinations tested included Compound A in combination with four structurally different SPLAMs. Concentrations tested for Compound A and each SPLAM alone or in combination ranged from 0.04 nM to 20,000 nM. A plate of cells was harvested at the time of compound addition to quantify the number of cells at the start of the combination (T0). For cell quantification, the harvested cells were lysed with Promega CellTiter-Glo (CTG) reagent according to the manufacturer's protocol and the chemiluminescent signal was detected on a Synergy Neo plate reader. CTG estimates cell number through detection of cellular ATP levels. Cells were incubated with the drug combinations at 37° C. with 5% CO2 for 10 days. Cells were then lysed with CTG and the chemiluminescent signal was measured.
(§2) CTG values obtained after the 10-day treatment were background subtracted and expressed as a percent of the T0 value. Data were plotted against compound concentration and fit with a four-parameter equation to generate dose response curves for each single agent and the equimolar combination. Growth ICx (gICx) values ranging from gIC30 to gIC100 were interpolated from the fitted curves. Synergistic growth inhibition was assessed by determination of Combination Index (CI) values at these various points across the titration using the mutually non-exclusive equation [Chou, 1983; Chou, 1981] shown below where A equals the gICx value of Compound A, B equals the gICx value of the SPLAM, and A+B or B+A equals the gICx value of the equimolar combination. A Combination Index value less than 1.0 was considered synergistic.

UMUC5 = conditions: single agent or 1:1 combo; for pIC50: read-out: gIC50
Procedure: as §1, §2

NCI-H838 = conditions: single agent or 1:1 combo; for pIC50: Homo sapiens, read-out: gIC50
Procedure: as §1, §2

RT112/84 = conditions: single agent or 1:1 combo; for pIC50: Homo sapiens, read-out: gIC50
Procedure: as §1, §2

NCI-H520 = conditions: single agent or 1:1 combo; for pIC50: Homo sapiens, read-out: gIC50
Procedure: as §1, §2

UMUC11 = conditions: single agent or 1:1 combo; for pIC50: read-out: gIC50
Procedure: as §1, §2

## Nc1nc(=O)n(-c2ccccc2Cl)c2nc(C(F)(F)F)ccc12 [Compound A]
SW900; 10 days
  gIC30: 19.994 µM
  gIC40: 20 µM
  gIC60: 20 µM
  gIC70: 20 µM
  gIC100: 20 µM
SW900; SW900, 240 h, 10 days
  pIC50: 4.70
SW900; SW900
  pIC50: 4.70
SW900
  gIC30: 19.994 µM
  gIC40: 20 µM
  gIC60: 20 µM
  gIC70: 20 µM
  gIC100: 20 µM
UMUC5; 240 h, 10 days
  pIC50: 5.37
UMUC5; 10 days
  gIC30: 420 nM
  gIC40: 1291 nM
  gIC60: 13.142 µM
  gIC70: 20 µM
  gIC100: 20 µM
UMUC5
  gIC30: 420 nM
  gIC40: 1291 nM
  gIC60: 13.142 µM
  gIC70: 20 µM
  gIC100: 20 µM
  pIC50: 5.37
NCI-H838; 10 days
  gIC30: 102 nM
  gIC40: 189 nM
  gIC60: 11.309 µM
  gIC70: 20 µM
  gIC100: 20 µM
NCI-H838; NCI-H838, 240 h, 10 days
  pIC50: 6.23
NCI-H838; NCI-H838
  pIC50: 6.23
NCI-H838
  gIC30: 102 nM
  gIC40: 189 nM
  gIC60: 11.309 µM
  gIC70: 20 µM
  gIC100: 20 µM
RT112/84; 10 days
  gIC30: 345 nM
  gIC40: 1111 nM
  gIC60: 12.951 µM
  gIC70: 20 µM
  gIC100: 20 µM
RT112/84; RT112/84, 240 h, 10 days
  pIC50: 5.47
RT112/84; RT112/84
  pIC50: 5.47
RT112/84
  gIC30: 345 nM
  gIC40: 1111 nM
  gIC60: 12.951 µM
  gIC70: 20 µM
  gIC100: 20 µM
NCI-H520; 10 days
  gIC30: 20 µM
  gIC40: 20 µM
  gIC60: 20 µM
  gIC70: 20 µM
  gIC100: 20 µM
NCI-H520; NCI-H520, 240 h, 10 days
  pIC50: 4.70
NCI-H520; NCI-H520
  pIC50: 4.70
NCI-H520
  gIC30: 20 µM
  gIC40: 20 µM
  gIC60: 20 µM
  gIC70: 20 µM
  gIC100: 20 µM
UMUC11; 240 h, 10 days
  pIC50: 4.70
UMUC11; 10 days
  gIC30: 20 µM
  gIC40: 20 µM
  gIC60: 20 µM
  gIC70: 20 µM
  gIC100: 20 µM
UMUC11
  gIC30: 20 µM
  gIC40: 20 µM
  gIC60: 20 µM
  gIC70: 20 µM
  gIC100: 20 µM
  pIC50: 4.70

## NS(=O)(=O)c1ccc(S(=O)(=O)Nc2cccc3c(Cl)c[nH]c23)cc1 [Indisulam, N-(3-chloro-1H-indol-7-yl)benzene-1,4-disulfonamide]
SW900; 10 days
  gIC30: 0.295 µM
  gIC40: 0.3 µM
  gIC60: 0.31 µM
  gIC70: 0.315 µM
  gIC100: 0.357 µM
SW900; 10 days, read-out: gIC80
  IC80: 321 nM
SW900; 10 days, read-out: gIC90
  IC90: 331 nM
SW900; SW900, 240 h, 10 days
  pIC50: 6.52
UMUC5; 240 h, 10 days
  pIC50: 6.38
UMUC5; 10 days
  gIC30: 310 nM
  gIC40: 363 nM
  gIC60: 0.487 µM
  gIC70: 0.574 µM
  gIC100: 20 µM
UMUC5; 10 days, read-out: gIC80
  IC80: 707 nM
UMUC5; 10 days, read-out: gIC90
  IC90: 990 nM
NCI-H838; 10 days
  gIC30: 276 nM
  gIC40: 300 nM
  gIC60: 0.355 µM
  gIC70: 0.393 µM
  gIC100: 20 µM
NCI-H838; 10 days, read-out: gIC80
  IC80: 448 nM
NCI-H838; 10 days, read-out: gIC90
  IC90: 551 nM
NCI-H838; NCI-H838, 240 h, 10 days
  pIC50: 6.49
RT112/84; 10 days
  gIC30: 249 nM
  gIC40: 273 nM
  gIC60: 0.327 µM
  gIC70: 0.363 µM
  gIC100: 20 µM
RT112/84; 10 days, read-out: gIC80
  IC80: 414 nM
RT112/84; 10 days, read-out: gIC90
  IC90: 510 nM
RT112/84; RT112/84, 240 h, 10 days
  pIC50: 6.53
NCI-H520; 10 days
  gIC30: 0.47 µM
  gIC40: 0.546 µM
  gIC60: 0.743 µM
  gIC70: 0.897 µM
  gIC100: 20 µM
NCI-H520; 10 days, read-out: gIC80
  IC80: 1160 nM
NCI-H520; 10 days, read-out: gIC90
  IC90: 2070 nM
NCI-H520; NCI-H520, 240 h, 10 days
  pIC50: 6.20
UMUC11; 240 h, 10 days
  pIC50: 6.33
UMUC11; 10 days
  gIC30: 0.369 µM
  gIC40: 0.417 µM
  gIC60: 0.539 µM
  gIC70: 0.628 µM
  gIC100: 20 µM
UMUC11; 10 days, read-out: gIC80
  IC80: 769 nM
UMUC11; 10 days, read-out: gIC90
  IC90: 1110 nM
